How the values were obtained:
[1] = Abdominal effective half-life from sequential quantitative SPECT (mono-exponential fit); type: in vivo
Method: (§1) Data for dosimetry were acquired during a routine 4-day in-patient stay following the radiopharmaceutical injection, in conjunction with standard clinical examinations. All patients received a 15-min one-bed abdominal SPECT scan and a 20-min whole-body planar scintigraphy at 24, 48, and 72 h post-injection (p. i.) on a dual-headed Symbia T2 SPECT/CT (Siemens Medical Solutions, Erlangen, Germany). Counts were detected for the photopeak window of 208 keV (width 15%) by the usage of a medium-energy low-penetration collimator. Two additional scatter windows were measured at 170 keV (width 15%) and 240 keV (width 10%). A low-dose AC-CT was acquired at the first image acquisition session for anatomical correlation and attenuation correction during quantitative SPECT reconstruction. For the determination of the absorbed dose to the bone marrow from the activity circulating in the blood, five venous blood samples were drawn from the site contralateral to injection at 30 and 80 min p. i. and 24, 48, and 72 h p. i..
Quantitative SPECT images were reconstructed as described by Delker et al. via a rotation-based, penalised, one-step-late ordered subset expectation maximisation algorithm, which included corrections for scatter, attenuation, and distance-dependent geometrical collimator blur. Attenuation correction was performed for each SPECT scan via the AC-CT, which was acquired along with the SPECT scan 24 h post-injection. To apply the attenuation correction, especially to the SPECT scans 48 and 72 h p. i., the single AC-CT was co-registered onto an initial SPECT reconstruction without attenuation correction by using a rigid body co-registration algorithm with six degrees of freedom (PMOD Version 3.609, PMOD Technologies, Zurich, Switzerland). If only one AC-CT is acquired for sequential SPECT imaging, special care has to be taken to minimise misregistration between SPECT images and separately acquired CT scans, as such a misalignment can distort the proper attenuation correction and, thus, activity quantification. This is in principal also true for serial SPECT and CT imaging, as even within a single image acquisition session patient movements cannot be entirely avoided. Scatter correction employed the triple energy window (TEW) method. Correction for distance-dependent collimator blur made use of a Gaussian blur model. Corrections for partial volume effects and dead time were not applied. For conversion of the measured counts per second and per voxel to Becquerel per millilitre, an appropriate calibration factor was determined. Therefore, we used a large cylinder of approximately 20 cm diameter, which was filled with a known activity concentration and which has been imaged and reconstructed via the same protocol.
(§2) First, the abdominal effective decay constant λSPECT was derived via a mono-exponential fit to the total activity in the SPECT scans 24, 48, and 72 h post-therapy. Especially, all organs and all tumours were included in the fitting of the TAC, as it was the case for the determination of A~WB from the reference protocol. This effective decay constant λSPECT serves as a surrogate for the reference-protocol-based whole-body effective decay constant (Fig. 2). The mono-exponential SPECT-based abdominal TAC was then scaled with a chosen base point. This base point is defined via the whole-body activity AWB(t^∗) of a single whole-body planar image acquired at an arbitrary time point t^∗∈ 24, 48, or 72 h post-therapy. The resulting pseudo-whole-body TAC AWB, pseudo(t) is intended to serve as an estimate of the reference-protocol-based whole-body TAC (Eq. (7.1)) and can be further used to determine a pseudo-whole-body time-integrated activity A~WB,pseudo (Eq. (7.2)).

bone marrow = assay: Bone marrow dosimetry, hybrid protocol (HP): sequential abdominal quantitative SPECT scaled with a single whole-body planar image; type: in vivo, human
Method: The proposed hybrid protocol (HP) uses a single whole-body image and sequential single-bed quantitative SPECT acquisitions of the abdomen to determine the ROB TAC, instead of deriving the ROB TAC from sequential whole-body planar imaging.
as §2, with “This effective decay constant λSPECT serves as a surrogate for the reference-protocol-based whole-body effective decay constant (Fig. 2).” left out
7.1 AWB,pseudot=AWB,pseudot^∗∙exp−λSPECT∙t−t^∗, 7.2 A~WB,pseudo=∫t=0∞AWB,pseudot^′dt^′=AWBt^∗∙expλSPECT∙t^∗/λSPECT=AWBt^∗∙expλSPECT∙t^∗∙T1/2,SPECT/ln2.
Based on the hybrid model given in Eqs. (7.1) and (7.2), the bone marrow absorbed dose from the ROB can be estimated by Eqs. (4.1) and (4.2). In this work, we investigated a combination of the sequential abdominal SPECT with the whole-body planar images at 24, 48, or 72 h p. i., where each whole-body planar image was individually calibrated via the quantitative SPECT at the corresponding time point (Fig. 2). These different hybrid protocols were further denoted as HP24, HP48, and HP72. The agreement of the bone marrow absorbed doses from the ROB, as determined via the HP and the RP, was assessed. Therefore, the percentage deviation between absorbed dose estimates (PDdose; Eq. (8)) was calculated, and a statistical test for correlation was performed (MATLAB Pearson correlation analysis).
Furthermore, the same analysis was performed regarding the total bone marrow absorbed dose estimates composed of all available constituents: the ROB (including tumours), the explicitly analysed organs, and the contribution of the blood activity.

[2] = Blood time-activity curve from venous blood samples (gamma counter, bi-exponential fit); type: in vivo, human; conditions: blood samples 30 min, 80 min, 24, 48, 72 h p. i.; median of n = 5 patients per therapy
Method: as §1
[11, 13]. […] To derive the patient-specific blood TAC, 1 ml of blood of each sample was pipetted into a test tube and measured within a Cobra Gamma Counter (Packard Instrument Company, Inc., Meriden, CT), which has been previously calibrated via five 1-ml test samples of known activity concentration. […]

[3] = mono-exponential fit to total activity in abdominal SPECT 24, 48, 72 h p. i., median of n = 5 patients per therapy

SMILES: C[C@@H](O)[C@H](NC(=O)[C@@H]1CSSC[C@H](NC(=O)[C@@H](Cc2ccccc2)NC(=O)CN2CCN(CC(=O)O)CCN(CC(=O)O)CCN(CC(=O)O)CC2)C(=O)N[C@@H](Cc2ccc(O)cc2)C(=O)N[C@H](Cc2c[nH]c3ccccc23)C(=O)N[C@@H](CCCCN)C(=O)N[C@@H]([C@@H](C)O)C(=O)N1)C(=O)O [Lu-177-Octreotate, Lu-177-[DOTA^0,Tyr^3]-Octreotate, metal not drawn]
- T1/2, SPECT, SPECT-based abdominal effective half-life [1, 3]: 61 h
- T1/2, SPECT, SPECT-based abdominal effective half-life ([1]; mono-exponential fit, abdominal SPECT 24, 48, 72 h p. i., patient P1 (NET)): 53 h
- T1/2, SPECT, SPECT-based abdominal effective half-life ([1]; mono-exponential fit, abdominal SPECT 24, 48, 72 h p. i., patient P2 (NET)): 61 h
- T1/2, SPECT, SPECT-based abdominal effective half-life ([1]; mono-exponential fit, abdominal SPECT 24, 48, 72 h p. i., patient P3 (NET)): 56 h
- T1/2, SPECT, SPECT-based abdominal effective half-life ([1]; mono-exponential fit, abdominal SPECT 24, 48, 72 h p. i., patient P4 (NET)): 73 h
- T1/2, SPECT, SPECT-based abdominal effective half-life ([1]; mono-exponential fit, abdominal SPECT 24, 48, 72 h p. i., patient P5 (NET)): 87 h
- DBM ← total HP72, total bone marrow absorbed dose (bone marrow; whole-body planar image 72 h p. i., patient P1 (NET, 7654 MBq)): 12.1 mGy/GBq
- effective half-life for the slow phase of the bi-exponential fit to the blood time-activity measurements [2]: 25 h

SMILES: O=C(O)CC[C@H](NC(=O)N[C@@H](CCCCNC(=O)[C@H](Cc1ccc2ccccc2c1)NC(=O)[C@H]1CC[C@H](CNC(=O)CN2CCN(CC(=O)O)CCN(CC(=O)O)CCN(CC(=O)O)CC2)CC1)C(=O)O)C(=O)O [Lu-177-PSMA-617, Lu-177-DKFZ-PSMA-617, metal not drawn]
- T1/2, SPECT, SPECT-based abdominal effective half-life [1, 3]: 42 h
- T1/2, SPECT, SPECT-based abdominal effective half-life ([1]; mono-exponential fit, abdominal SPECT 24, 48, 72 h p. i., patient P6 (mCRPC)): 33 h
- T1/2, SPECT, SPECT-based abdominal effective half-life ([1]; mono-exponential fit, abdominal SPECT 24, 48, 72 h p. i., patient P7 (mCRPC)): 50 h
- T1/2, SPECT, SPECT-based abdominal effective half-life ([1]; mono-exponential fit, abdominal SPECT 24, 48, 72 h p. i., patient P8 (mCRPC)): 67 h
- T1/2, SPECT, SPECT-based abdominal effective half-life ([1]; mono-exponential fit, abdominal SPECT 24, 48, 72 h p. i., patient P9 (mCRPC)): 31 h
- T1/2, SPECT, SPECT-based abdominal effective half-life ([1]; mono-exponential fit, abdominal SPECT 24, 48, 72 h p. i., patient P10 (mCRPC)): 42 h
- DBM ← total HP24, total bone marrow absorbed dose (bone marrow; single whole-body planar image 24 h p. i., median of n = 5 patients per therapy): 11.3 mGy/GBq
- DBM ← total HP48, total bone marrow absorbed dose (bone marrow; single whole-body planar image 48 h p. i., median of n = 5 patients per therapy): 9.6 mGy/GBq
- DBM ← total HP72, total bone marrow absorbed dose (bone marrow; single whole-body planar image 72 h p. i., median of n = 5 patients per therapy): 10.1 mGy/GBq
- DBM ← total HP24, total bone marrow absorbed dose (bone marrow; whole-body planar image 24 h p. i., patient P6 (mCRPC, 3718 MBq)): 11.3 mGy/GBq
- DBM ← total HP24, total bone marrow absorbed dose (bone marrow; whole-body planar image 24 h p. i., patient P7 (mCRPC, 3743 MBq)): 8.1 mGy/GBq
- DBM ← total HP24, total bone marrow absorbed dose (bone marrow; whole-body planar image 24 h p. i., patient P8 (mCRPC, 3745 MBq)): 17.1 mGy/GBq
- DBM ← total HP24, total bone marrow absorbed dose (bone marrow; whole-body planar image 24 h p. i., patient P9 (mCRPC, 3752 MBq)): 13.5 mGy/GBq
- DBM ← total HP24, total bone marrow absorbed dose (bone marrow; whole-body planar image 24 h p. i., patient P10 (mCRPC, 3700 MBq)): 10.0 mGy/GBq
- DBM ← total HP48, total bone marrow absorbed dose (bone marrow; whole-body planar image 48 h p. i., patient P6 (mCRPC, 3718 MBq)): 9.6 mGy/GBq
- DBM ← total HP48, total bone marrow absorbed dose (bone marrow; whole-body planar image 48 h p. i., patient P7 (mCRPC, 3743 MBq)): 6.7 mGy/GBq
- DBM ← total HP48, total bone marrow absorbed dose (bone marrow; whole-body planar image 48 h p. i., patient P8 (mCRPC, 3745 MBq)): 17.1 mGy/GBq
- DBM ← total HP48, total bone marrow absorbed dose (bone marrow; whole-body planar image 48 h p. i., patient P9 (mCRPC, 3752 MBq)): 13.6 mGy/GBq
- DBM ← total HP48, total bone marrow absorbed dose (bone marrow; whole-body planar image 48 h p. i., patient P10 (mCRPC, 3700 MBq)): 8.1 mGy/GBq
- DBM ← total HP72, total bone marrow absorbed dose (bone marrow; whole-body planar image 72 h p. i., patient P6 (mCRPC, 3718 MBq)): 10.1 mGy/GBq
- DBM ← total HP72, total bone marrow absorbed dose (bone marrow; whole-body planar image 72 h p. i., patient P7 (mCRPC, 3743 MBq)): 7.0 mGy/GBq
- DBM ← total HP72, total bone marrow absorbed dose (bone marrow; whole-body planar image 72 h p. i., patient P8 (mCRPC, 3745 MBq)): 16.8 mGy/GBq
- DBM ← total HP72, total bone marrow absorbed dose (bone marrow; whole-body planar image 72 h p. i., patient P9 (mCRPC, 3752 MBq)): 15.1 mGy/GBq
- DBM ← total HP72, total bone marrow absorbed dose (bone marrow; whole-body planar image 72 h p. i., patient P10 (mCRPC, 3700 MBq)): 8.5 mGy/GBq
- effective half-life for the slow phase of the bi-exponential fit to the blood time-activity measurements [2]: 14 h

From PMC6081875 (EJNMMI Research, 2018)
